Values after ≈ are worked out from the molar mass of the structure shown.
System: not given
Experiment: not given
Conditions: not given

SMILES | melting point
O=C1CC(N2C=Nc3c(Cl)cc(Cl)cc3C2)C(=O)N1 (stereo not drawn) [Example 8e, 3-(6,8-dichloro-4H-quinazolin-3-yl)-pyrrolidine-2,5-dione] | 230 to 232 °C
O=C1CC(N2C=Nc3ccc([N+](=O)[O-])cc3C2)C(=O)N1 (stereo not drawn) [Example 8f, 3-(6-nitro-4H-quinazolin-3-yl)-pyrrolidine-2,5-dione] | 168 to 172 °C
O=C1CC(N2C=Nc3cc([N+](=O)[O-])ccc3C2)C(=O)N1 (stereo not drawn) [Example 8h, 3-(7-nitro-4H-quinazolin-3-yl)-pyrrolidine-2,5-dione] | 212 to 225 °C
Cc1cc(Br)c2c(c1)CN(C1CC(=O)NC1=O)C=N2 (stereo not drawn) [Example 8i, 3-(8-bromo-6-methyl-4H-quinazolin-3-yl)-pyrrolidine-2,5-dione] | 240 to 241 °C
O=C1CC(N2C=Nc3c(Cl)cccc3C2)C(=O)N1 (stereo not drawn) [Example 8j, 3-(8-chloro-4H-quinazolin-3-yl)-pyrrolidine-2,5-dione] | 194 °C
COc1cccc2c1N=CN(C1CC(=O)NC1=O)C2 (stereo not drawn) [Example 8k, 3-(8-methoxy-4H-quinazolin-3-yl)-pyrrolidine-2,5-dione] | 195 to 200 °C
O=C1CC(N2C=Nc3ccc(OCc4ccccc4)cc3C2)C(=O)N1 (stereo not drawn) [Example 8l, 3-(6-benzyloxy-4H-quinazolin-3-yl)-pyrrolidine-2,5-dione] | 171 to 173 °C
O=C1CC(N2C=Nc3ccc(Cl)c(Cl)c3C2)C(=O)N1 (stereo not drawn) [Example 9a, 3-(5,6-dichloro-4H-quinazolin-3-yl)-pyrrolidine-2,5-dione] | 174 to 178 °C
COc1cc2c(cc1OC)N=CN(C1CC(=O)NC1=O)C2 (stereo not drawn) [Example 10b, 3-(6,7-dimethoxy-4H-quinazolin-3-yl)-pyrrolidine-2,5-dione] | 189 to 200 °C

More lines, now with the values ahead:

melting point | SMILES
188 to 190 °C | O=C1CC(N2C=Nc3c(cccc3C(F)(F)F)C2)C(=O)N1 (stereo not drawn) [Example 11c, 3-(8-trifluoromethyl-4H-quinazolin-3-yl)-pyrrolidine-2,5-dione]
163 to 164 °C | CN1C(=O)CC(N2C=Nc3ccccc3C2)C1=O (stereo not drawn) [Example 11d, 1-methyl-3-(4H-quinazolin-3-yl)-pyrrolidine-2,5-dione]
191 to 193 °C | CN1C(=O)CC(N2C=Nc3cc(F)ccc3C2)C1=O (stereo not drawn) [Example 11e, 7-fluoro-1-methyl-3-(4H-quinazolin-3-yl)-pyrrolidine-2,5-dione]
203 to 205 °C | CCOc1cccc2c1CN(C1CC(=O)NC1=O)C=N2 (stereo not drawn) [Example 12b, 3-(5-ethoxy-4H-quinazolin-3-yl)-pyrrolidine-2,5-dione]
154 to 160 °C | CCCCCOc1cccc2c1CN(C1CC(=O)NC1=O)C=N2 (stereo not drawn) [Example 12c, 3-(5-pentyloxy-4H-quinazolin-3-yl)-pyrrolidine-2,5-dione]
100 to 108 °C | O=C1CC(N2C=Nc3cccc(OCc4ccccc4)c3C2)C(=O)N1 (stereo not drawn) [Example 12d, 3-(5-benzyloxy-4H-quinazolin-3-yl)-pyrrolidine-2,5-dione]
191 to 192 °C | CC(C)Oc1cccc2c1CN(C1CC(=O)NC1=O)C=N2 (stereo not drawn) [Example 12e, 3-(5-isopropoxy-4H-quinazolin-3-yl)-pyrrolidine-2,5-dione]
288 to 290 °C | COCCOc1cccc2c1CN(C1CC(=O)NC1=O)C=N2 (stereo not drawn) [Example 12f, 3-(5-(2-methoxyethoxy)-4H-quinazolin-3-yl)-pyrrolidine-2,5-dione]
205 to 206 °C | CC1=Nc2cc(C(F)(F)F)ccc2CN1C1CC(=O)NC1=O (stereo not drawn) [Example 15aa, 3-(2-methyl-7-trifluoromethyl-4H-quinazolin-3-yl)-pyrrolidine-2,5-dione]
161 to 166 °C | CC1=Nc2ccc(Cl)c(Cl)c2CN1C1CC(=O)NC1=O (stereo not drawn) [Example 15c, 3-(5,6-dichloro-2-methyl-4H-quinazolin-3-yl)-pyrrolidine-2,5-dione]
199 to 201 °C | CC1=Nc2cc(Cl)cc(Cl)c2CN1C1CC(=O)NC1=O (stereo not drawn) [Example 15d, 3-(5,7-dichloro-2-methyl-4H-quinazolin-3-yl)-pyrrolidine-2,5-dione]
203 to 210 °C | CC1=Nc2cc([N+](=O)[O-])ccc2CN1C1CC(=O)NC1=O (stereo not drawn) [Example 15ee, 3-(2-methyl-7-nitro-4H-quinazolin-3-yl)-pyrrolidine-2,5-dione]
186 to 191 °C | CC1=Nc2c(Cl)ccc(Cl)c2CN1C1CC(=O)NC1=O (stereo not drawn) [Example 15f, 3-(5,8-dichloro-2-methyl-4H-quinazolin-3-yl)-pyrrolidine-2,5-dione]
145 to 150 °C | CC1=Nc2c(Br)cc(C)cc2CN1C1CC(=O)NC1=O (stereo not drawn) [Example 15ff, 3-(8-bromo-2,6-dimethyl-4H-quinazolin-3-yl)-pyrrolidine-2,5-dione]
176 to 178 °C | CC1=Nc2c(Cl)cccc2CN1C1CC(=O)NC1=O (stereo not drawn) [Example 15hh, 3-(8-chloro-2-methyl-4H-quinazolin-3-yl)-pyrrolidine-2,5-dione]
130 to 133 °C | CCOc1cccc2c1CN(C1CC(=O)NC1=O)C(C)=N2 (stereo not drawn) [Example 15k, 3-(5-ethoxy-2-methyl-4H-quinazolin-3-yl)-pyrrolidine-2,5-dione]
116 to 119 °C | CC1=Nc2cccc(OC(C)C)c2CN1C1CC(=O)NC1=O (stereo not drawn) [Example 15m, 3-(5-isopropoxy-2-methyl-4H-quinazolin-3-yl)-pyrrolidine-2,5-dione]
200 to 201 °C | CC1=Nc2cccc(C)c2CN1C1CC(=O)NC1=O (stereo not drawn) [Example 15n, 3-(2,5-dimethyl-4H-quinazolin-3-yl)-pyrrolidine-2,5-dione]
122 °C | COc1cccc2c1CN(C1CC(=O)NC1=O)C(C)=N2 (stereo not drawn) [Example 15o, 3-(5-methoxy-2-methyl-4H-quinazolin-3-yl)-pyrrolidine-2,5-dione]
> 260 °C (dec.) | CC1=Nc2cccc([N+](=O)[O-])c2CN1C1CC(=O)NC1=O (stereo not drawn) [Example 15p, 3-(2-methyl-5-nitro-4H-quinazolin-3-yl)-pyrrolidine-2,5-dione]
154 to 156 °C | CCCCCOc1cccc2c1CN(C1CC(=O)NC1=O)C(C)=N2 (stereo not drawn) [Example 15q, 3-(2-methyl-5-pentyloxy-4H-quinazolin-3-yl)-pyrrolidine-2,5-dione]
106 to 110 °C | CC1=Nc2cc3ccccc3cc2CN1C1CC(=O)NC1=O (stereo not drawn) [Example 15t, 3-(2-methyl-4H-benzo[g]quinazolin-3-yl)-pyrrolidine-2,5-dione]
200 to 202 °C | COc1cc2c(cc1OC)N=C(C)N(C1CC(=O)NC1=O)C2 (stereo not drawn) [Example 15v, 3-(6,7-dimethoxy-2-methyl-4H-quinazolin-3-yl)-pyrrolidine-2,5-dione]
180 to 182 °C | CC1=Nc2c(Cl)cc(Cl)cc2CN1C1CC(=O)NC1=O (stereo not drawn) [Example 15w, 3-(6,8-dichloro-2-methyl-4H-quinazolin-3-yl)-pyrrolidine-2,5-dione]
132 to 143 °C | CC1=Nc2ccc(OCc3ccccc3)cc2CN1C1CC(=O)NC1=O (stereo not drawn) [Example 15x, 3-(6-benzyloxy-2-methyl-4H-quinazolin-3-yl)-pyrrolidine-2,5-dione]
195 to 203 °C | CC1=Nc2ccc(Cl)cc2CN1C1CC(=O)NC1=O (stereo not drawn) [Example 15y, 3-(6-chloro-2-methyl-4H-quinazolin-3-yl)-pyrrolidine-2,5-dione]
170 to 175 °C | CC1=Nc2ccc([N+](=O)[O-])cc2CN1C1CC(=O)NC1=O (stereo not drawn) [Example 15z, 3-(2-methyl-6-nitro-4H-quinazolin-3-yl)-pyrrolidine-2,5-dione]

System: IL-10 production of LPS-activated monocytes
Experiment: Increase in IL-10 production of LPS-activated human monocytes (sandwich ELISA of culture supernatants)
Type: cell-based
Conditions: Monocyte; human CD14-positive monocytes, 1 h preincubation with test substance, 10 μg/ml LPS from E. coli, 24 hours
Protocol: (§1) Stimulation of human monocytes with lipopolysaccharide for secretion of IL-10 and IL-12:
(§2) Human monocytes were isolated from peripheral blood mononuclear cells (PBMC), which were obtained from heparinized whole blood by means of a Ficoll density gradient centrifugation. For this, the PBMC were incubated with a monoclonal antibody which is directed against the monocyte-specific surface molecule CD14 and to which superparamagnetic microbeads (Miltenyi Biotech, Bergisch Gladbach) are coupled. For positive selection of the labelled monocytes from the cell mixture of the PBMC, the entire cell suspension was applied to a column with a ferromagnetic carrier matrix and this was placed in a magnetic field. The cells loaded with microbeads were thereby bound to the carrier matrix, and non-labelled cells passed through the column and were discarded. After removing the matrix from the magnetic field, the antibody-laden cells were eluted by rinsing the now demagnetized column with buffer. The purity of this CD14-positive monocyte population obtained in this way is about 95-98%. These monocytes were incubated in a density of 10^6 cells/ml of culture medium (RPMI, supplemented with 10% foetal calf serum) with the test substances, dissolved in DMSO, at 37° C. and 5% CO2 for one hour. 10 μg/ml of LPS from E. coli were then added. After 24 hours, cell-free culture supernatants were taken and tested for the content of IL-10 and IL-12.
(§3) The concentration of IL-12 and IL-10 in the cell culture supernatants was determined by means of sandwich ELISAs using two anti-IL-12 and, respectively, IL-10 monoclonal antibodies (Biosource Europe, Fleurus, Belgium). A reference standard curve with human IL-10 and, respectively, IL-12 was included. The detection limit of the ELISAs was 15 pg/ml.

SMILES | EC200 [µg/mL]
O=C1CC(N2C=Nc3cc(F)cc(Cl)c3C2)C(=O)N1 (stereo not drawn) [Example 1, 3-(5-chloro-7-fluoro-4H-quinazolin-3-yl)-pyrrolidine-2,5-dione] | 4
O=C1CC(N2C=Nc3cc(Cl)cc(F)c3C2)C(=O)N1 (stereo not drawn) [Example 2, 3-(7-chloro-5-fluoro-4H-quinazolin-3-yl)-pyrrolidine-2,5-dione] | 1
O=C1CC(N2C=Nc3cc(F)cc(F)c3C2)C(=O)N1 (stereo not drawn) [Example 4, 3-(5,7-difluoro-4H-quinazolin-3-yl)-pyrrolidine-2,5-dione] | 0.62
O=C1CC(N2C=Nc3cc(F)c(F)cc3C2)C(=O)N1 (stereo not drawn) [Example 8d, 3-(6,7-difluoro-4H-quinazolin-3-yl)-pyrrolidine-2,5-dione] | > 50
COc1cccc2c1CN(C1CC(=O)NC1=O)C=N2 (stereo not drawn) [Example 12a, 3-(5-methoxy-4H-quinazolin-3-yl)-pyrrolidine-2,5-dione] | > 50

Same assay, conditions: human CD14-positive monocytes, 1 h preincubation with test substance, 10 μg/ml LPS from E. coli, 24 hours

SMILES | Increase in IL-10 production EC200 [ng/mL]
O=C1CC(N2C=Nc3cc4ccccc4cc3C2)C(=O)N1 (stereo not drawn) [Example 8c, 3-(4H-benzo[q]quinazolin-3-yl)-pyrrolidine-2,5-dione] | >50000

System: IL-12 production of LPS-activated monocytes
Experiment: Inhibition of IL-12 production of LPS-activated human monocytes (sandwich ELISA of culture supernatants)
Type: cell-based
Conditions: Monocyte; human CD14-positive monocytes, 1 h preincubation with test substance, 10 μg/ml LPS from E. coli, 24 hours
Protocol: as §1, §2, §3

IC50 [µg/mL] | SMILES
1.5 (≈ 5.33 µM) | O=C1CC(N2C=Nc3cc(F)cc(Cl)c3C2)C(=O)N1 (stereo not drawn) [Example 1, 3-(5-chloro-7-fluoro-4H-quinazolin-3-yl)-pyrrolidine-2,5-dione]
1.4 (≈ 4.97 µM) | O=C1CC(N2C=Nc3cc(Cl)cc(F)c3C2)C(=O)N1 (stereo not drawn) [Example 2, 3-(7-chloro-5-fluoro-4H-quinazolin-3-yl)-pyrrolidine-2,5-dione]
0.107 (≈ 0.403 µM) | O=C1CC(N2C=Nc3cc(F)cc(F)c3C2)C(=O)N1 (stereo not drawn) [Example 4, 3-(5,7-difluoro-4H-quinazolin-3-yl)-pyrrolidine-2,5-dione]
0.715 (≈ 2.7 µM) | O=C1CC(N2C=Nc3cc(F)c(F)cc3C2)C(=O)N1 (stereo not drawn) [Example 8d, 3-(6,7-difluoro-4H-quinazolin-3-yl)-pyrrolidine-2,5-dione]
1.8 (≈ 6.94 µM) | COc1cccc2c1CN(C1CC(=O)NC1=O)C=N2 (stereo not drawn) [Example 12a, 3-(5-methoxy-4H-quinazolin-3-yl)-pyrrolidine-2,5-dione]

Same assay, conditions: human CD14-positive monocytes, 1 h preincubation with test substance, 10 μg/ml LPS from E. coli, 24 hours

Inhibition of IL-12 production IC50 [µg/mL] | SMILES
4 | O=C1CC(N2C=Nc3cc4ccccc4cc3C2)C(=O)N1 (stereo not drawn) [Example 8c, 3-(4H-benzo[q]quinazolin-3-yl)-pyrrolidine-2,5-dione]

Source: US20080293749A1, “Pyrrolidine(thi)ones Substituted by Heterocyclic Substituents in The 3-Position” (Gruenenthal GmbH, priority 2005, published 2008)
